Measurements: ChEMBL document CHEMBL3875156, “Design, synthesis and preliminary evaluation of dopamine-amino acid conjugates as potential D1 dopaminergic modulators” (Eur J Med Chem, 2016)

Columns and labels:
[1] = n-octanol-phosphate buffer apparent distribution coefficient, log D of the compound at pH 7.4 by shake flask method; type: physicochemical
[2] = Half life in Sprague-Dawley rat brain homogenate at 2.075 mg/mL; type: ADME, tissue-based
[3] = Half life in human plasma at 2.05 mg/mL; type: ADME, cell-free

logD [1] | half-life [2] [h] | half-life [3] [h] | Structure (SMILES)
0.5 | 1.33 | 2 | N[C@@H](Cc1c[nH]c2ccccc12)C(=O)NCCc1ccc(O)c(O)c1
0.18 | 3.22 | 0.767 | CC(C)C[C@H](N)C(=O)NCCc1ccc(O)c(O)c1
